In ChEMBL document CHEMBL4138093, “Discovery and characterization of selective human sphingomyelin synthase 2 inhibitors” (Eur J Med Chem, 2017):

Experiments:
HEK-293T = assay: Cytotoxicity against HEK293T cells by CellTiter-Glo luminescent cell viability assay relative to control; type: cell-based; settings: human
[1] = biological target: T1, Phosphatidylcholine:ceramide cholinephosphotransferase 1 (Homo sapiens, UniProt Q86VZ5); assay: Inhibition of human SMS1
T1 sequence (Q86VZ5 whole entry): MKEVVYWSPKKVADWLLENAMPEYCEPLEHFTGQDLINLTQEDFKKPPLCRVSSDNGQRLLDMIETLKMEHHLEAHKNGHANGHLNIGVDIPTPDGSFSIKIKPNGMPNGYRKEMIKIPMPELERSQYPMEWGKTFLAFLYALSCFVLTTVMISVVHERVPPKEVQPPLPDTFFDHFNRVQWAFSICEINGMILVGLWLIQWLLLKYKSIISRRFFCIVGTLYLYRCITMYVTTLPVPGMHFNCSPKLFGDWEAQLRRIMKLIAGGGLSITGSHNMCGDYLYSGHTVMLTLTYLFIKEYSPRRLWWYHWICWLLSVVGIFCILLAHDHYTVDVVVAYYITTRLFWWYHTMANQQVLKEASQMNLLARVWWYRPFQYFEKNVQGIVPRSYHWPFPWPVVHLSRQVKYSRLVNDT

[2] = biological target: T1, Phosphatidylcholine:ceramide cholinephosphotransferase 1; assay: Inhibition of full length C-terminal FLAG tagged human SMS1 expressed in HEK293 cell membranes using DMPC-d72 and C17-ceramide as substrate preincubated for 60 mins followed by substrate addition measured after 30 mins by RapidFire/mass spectrometry assay
[3] = biological target: T2, Phosphatidylcholine:ceramide cholinephosphotransferase 2 (Homo sapiens, UniProt Q8NHU3); assay: Inhibition of full length C-terminal FLAG tagged human SMS2 expressed in HEK293 cell membranes using DMPC-d72 and C17-ceramide as substrate preincubated for 60 mins followed by substrate addition measured after 30 mins by RapidFire/mass spectrometry assay
T2 sequence (Q8NHU3 whole entry): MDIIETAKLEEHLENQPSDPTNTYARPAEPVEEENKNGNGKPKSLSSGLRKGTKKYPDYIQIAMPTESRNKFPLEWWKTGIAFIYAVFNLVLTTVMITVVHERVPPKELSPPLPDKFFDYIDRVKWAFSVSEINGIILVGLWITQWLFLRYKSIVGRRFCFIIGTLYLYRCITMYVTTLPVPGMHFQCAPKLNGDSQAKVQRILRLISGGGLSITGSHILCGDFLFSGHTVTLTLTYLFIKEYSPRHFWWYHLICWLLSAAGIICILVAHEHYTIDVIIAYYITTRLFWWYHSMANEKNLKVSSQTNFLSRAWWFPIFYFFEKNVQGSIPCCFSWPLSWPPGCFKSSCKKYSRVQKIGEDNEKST

Homo sapiens = species on record: Homo sapiens; assay: Selectivity index, ratio of IC50 for full length C-terminal FLAG tagged human SMS1 to IC50 for full length C-terminal FLAG tagged human SMS2

Q: `CN(Cc1cc(C(F)(F)F)cc(C(F)(F)F)c1)C(=O)c1c(N2CCCC2)c2ccccc2n(C)c1=O` was tested. Which Activity (HEK-293T) did it give?
A: > 50%

Q: And the IC50 [1]?
A: > 100 µM

Q: Which results are given for `S=C(S)OC1CC2CC1C1CCCC21` (stereo not given)?
A: IC50 [2]: 86 µM; IC50 [3]: 56 µM; Ratio IC50 (Homo sapiens): 1.5
